In ChEMBL document CHEMBL6182901, “1,5-Disubstituted 1,2,3-triazoles: Molecular scaffolds for medicinal chemistry and biomolecular mimetics” (Eur J Med Chem, 2025):
In brackets after ≈: the same amount, converted by molar mass. Residues, ends and D or L forms follow the SMILES beside them.

Assays:
[1] = Binding affinity to c-Src (unknown origin) assessed as inhibition constant by fluorescence based assay; parameters: species or system Homo sapiens
[2] = Binding affinity to c-Abl (unknown origin) assessed as inhibition constant by fluorescence based assay; parameters: species or system Homo sapiens
[3] = Inhibition of bovine pancrease trypsin by microplate reader analysis; parameters: species or system Bos taurus
[4] = target: Human immunodeficiency virus type 1 reverse transcriptase (Human immunodeficiency virus 1, UniProt Q72547); test: Binding affinity to HIV-1 reverse transcriptase assessed as dissociation constant
[5] = Binding affinity to Aplysia californica Acetylcholine-binding protein assessed as dissociation constant
[6] = target: Acetylcholine-binding protein (Lymnaea stagnalis, UniProt P58154); test: Binding affinity to Lymnaea stagnalis Acetylcholine-binding protein assessed as dissociation constant
Acetylcholine-binding protein, sequence (P58154 whole entry): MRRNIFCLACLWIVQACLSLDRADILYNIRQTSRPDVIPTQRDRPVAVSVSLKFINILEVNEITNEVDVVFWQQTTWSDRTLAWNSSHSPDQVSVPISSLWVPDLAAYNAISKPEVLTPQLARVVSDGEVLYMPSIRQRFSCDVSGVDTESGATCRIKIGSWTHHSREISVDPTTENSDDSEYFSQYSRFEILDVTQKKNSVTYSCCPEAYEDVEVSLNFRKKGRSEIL

[7] = Binding affinity to Aplysia californica Y55W Acetylcholine-binding protein assessed as dissociation constant
[8] = system: HeLa; test: Cytostatic activity against human HeLa cells measured for 72 hrs; format: functional; settings: read-out: ED50 (the source's name)
[9] = system: Escherichia coli; test: Antibacterial activity against Escherichia coli assessed as reduction in microbial growth by CLSI based broth microdilution method; format: functional
[10] = system: Staphylococcus aureus; test: Antibacterial activity against Staphylococcus aureus assessed as reduction in microbial growth by CLSI based broth microdilution method; format: functional
[11] = system: HepG2; test: Cytotoxicity against human HepG2 cells assessed as reduction in cell viability incubated for 24 hrs by MTT assay; format: functional, cell-based; settings: HepG2, 24 h
[12] = system: MDA-MB-231; test: Cytotoxicity against human MDA-MB-231 cells assessed as reduction in cell viability incubated for 24 hrs by MTT assay; format: functional, cell-based; settings: MDA-MB-231, 24 h
[13] = system: A549; test: Cytotoxicity against human A549 cells assessed as reduction in cell viability incubated for 24 hrs by MTT assay; format: functional, cell-based; settings: A549, 24 h
[14] = Inhibition of bovine pancrease trypsin-catalyzed proteolysis of chromogenic substrate Boc-QAR-pNA; parameters: species or system Bos taurus
[15] = target: Histone deacetylase; test: Inhibition of HDAC extracted from human HeLa cell nuclear extract by fluorescence assay; format: subcellular, Nucleus
[16] = system: EMT6; test: Anticancer activity against mouse EMT6 cells assessed as reduction in cell viability incubated for 48 hrs by XTT assay; format: functional, cell-based; settings: EMT6, 48 h
[17] = system: EMT6; test: Anticancer activity against mouse EMT6 cells assessed as reduction in cell viability at 100 uM incubated for 48 hrs by XTT assay relative to control; format: functional
[18] = target: D-amino-acid oxidase (Homo sapiens, UniProt P14920); test: Binding affinity to human DAO assessed as inhibition constant
D-amino-acid oxidase, sequence (P14920 whole entry): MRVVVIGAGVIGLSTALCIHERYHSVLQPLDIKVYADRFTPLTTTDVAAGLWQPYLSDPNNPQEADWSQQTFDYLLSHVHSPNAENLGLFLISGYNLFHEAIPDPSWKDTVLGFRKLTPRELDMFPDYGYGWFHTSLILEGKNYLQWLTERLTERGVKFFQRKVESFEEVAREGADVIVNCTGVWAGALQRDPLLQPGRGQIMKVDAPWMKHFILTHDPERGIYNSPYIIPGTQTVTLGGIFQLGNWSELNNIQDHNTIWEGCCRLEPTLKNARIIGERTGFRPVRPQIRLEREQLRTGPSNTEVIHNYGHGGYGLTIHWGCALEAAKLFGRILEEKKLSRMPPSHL

[19] = system: SW480; test: Anticancer activity against human SW480 cells assessed as reduction in cell viability incubated for 48 hrs by XTT assay; format: functional, cell-based; settings: SW480, 48 h
[20] = target: C-X-C chemokine receptor type 4 (Homo sapiens, UniProt P61073); test: Displacement of 125I-CXCL12 from CXCR4 in human CCRF-CEM cells by competitive binding assay; format: cell-based
C-X-C chemokine receptor type 4, sequence (P61073 whole entry): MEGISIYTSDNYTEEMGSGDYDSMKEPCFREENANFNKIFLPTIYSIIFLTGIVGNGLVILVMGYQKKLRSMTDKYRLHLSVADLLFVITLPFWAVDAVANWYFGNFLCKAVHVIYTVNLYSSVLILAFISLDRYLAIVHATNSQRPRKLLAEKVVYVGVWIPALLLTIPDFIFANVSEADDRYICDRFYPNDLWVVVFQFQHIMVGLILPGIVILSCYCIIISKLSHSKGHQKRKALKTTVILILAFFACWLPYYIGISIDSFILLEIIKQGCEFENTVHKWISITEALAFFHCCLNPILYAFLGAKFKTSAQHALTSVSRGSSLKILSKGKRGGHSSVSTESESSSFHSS

Structure (SMILES): Nc1ncnc2c1c(-c1ccc(Cl)cc1)nn2-c1cccc(-c2cnnn2Cc2cccc(-c3ccccc3)c2)c1
- Ki [1]: 0.044 µM
- Ki [2]: > 125 µM

Structure (SMILES): CC[C@H](C)[C@@H]1NC(=O)[C@H](C)NC(=O)[C@@H]2CCCN2C(=O)[C@H]([C@@H](C)CC)NC(=O)[C@H](CO)NC(=O)[C@H](CCCCN)NC(=O)[C@H]([C@@H](C)O)NC(=O)[C@@H](NC(=O)[C@H](CCCNC(=N)N)NC(=O)CN)CSSC[C@@H](C(=O)N[C@@H](Cc2ccccc2)C(=O)N2CCC[C@H]2C(=O)N[C@@H](CC(=O)O)C(=O)O)NC1=O (HELM PEPTIDE1{G.R.C.T.K.S.I.P.A.I.C.F.P.D}$PEPTIDE1,PEPTIDE1,3:R3-11:R3$$$V2.0)
- Ki [3]: 0.0032 µM

Structure (SMILES): N[C@H]1C[C@@H](N)[C@H](OCc2cnnn2CC(=O)c2ccc(-c3ccccc3)cc2)C1
- Kd [4]: 3.3 µM

Structure (SMILES): Cn1c(=O)cc(OCc2cnnn2C2C[C@@H]3C[C@H]2[N+]3(C)C)c2ccccc21 (stereo partly specified)
- Kd [5]: 0.331 µM
- Kd [6]: 0.00164 µM
- Kd [7]: 0.0981 µM

Structure (SMILES): CC(=O)OC[C@H]1O[C@@H](n2nncc2CBr)[C@H](OC(C)=O)[C@@H](OC(C)=O)[C@@H]1OC(C)=O
- EC50 [8]: 4 µg/mL (≈ 8.13 µM)

Structure (SMILES): CC[C@H]1COC(=O)C[C@@H](O)[C@H](C)[C@@H](O[C@@H]2OC[C@@H](O)[C@H](N(C)C)[C@H]2O)[C@@H](CN(Cc2ccccc2)Cc2cnnn2-c2cnc3ccccc3c2)C[C@@H](C)C(=O)/C=C/C(C)=C/[C@@H]1CO
- MIC [9]: 464 µg/mL
- MIC [10]: 4 µg/mL

Structure (SMILES): O=C(Nc1ccccc1)[C@@H]1C[C@H]2CCc3cnnn3CCOc3cccc(c3)C(=O)N1C2
- IC50 [11]: 36.3 µM
- IC50 [12]: 43.7 µM
- IC50 [13]: 46.3 µM

Structure (SMILES): CC[C@H](C)[C@@H]1NC(=O)[C@H](C)n2nncc2[C@@H]2CCCN2C(=O)[C@H]([C@@H](C)CC)NC(=O)[C@H](CO)NC(=O)[C@H](CCCCN)NC(=O)[C@H]([C@@H](C)O)NC(=O)[C@@H](NC(=O)[C@H](CCCNC(=N)N)NC(=O)CN)CSSC[C@@H](C(=O)N[C@@H](Cc2ccccc2)C(=O)N2CCC[C@H]2C(=O)N[C@@H](CC(=O)O)C(=O)O)NC1=O (HELM PEPTIDE1{G.R.C.T.K.S.I.[C[C@@H](C(=O)[*:2])n1nncc1[C@@H]1CCCN1[*:1]].I.C.F.P.D}$PEPTIDE1,PEPTIDE1,3:R3-10:R3$$$V2.0)
- Ki [3]: 0.255 µM

Structure (SMILES): C#Cc1cccc(-n2nc(-c3ccc(Cl)cc3)c3c(N)ncnc32)c1
- Ki [1]: 1.45 µM
- Ki [2]: 7.15 µM

Structure (SMILES): CC[C@H](C)[C@@H]1NC(=O)[C@@H]2CCCN2C(=O)[C@@H]2CCCN2C(=O)[C@H]([C@@H](C)CC)NC(=O)[C@H](CO)NC(=O)[C@H](CCCCN)NC(=O)[C@@H]([C@H](C)O)NC(=O)[C@@H](NC(=O)[C@H](CCCNC(=N)N)NC(=O)CN)CCn2nncc2C[C@@H](C(=O)N[C@@H](Cc2ccccc2)C(=O)N2CCC[C@H]2C(=O)N[C@@H](CC(=O)O)C(=O)O)NC1=O
- Ki [14]: 0.0024 µM

Structure (SMILES): CCC(=O)CCCCC[C@@H]1NC(=O)[C@@H](C(C)(C)C)n2cc(nn2)[C@H]([C@@H](C)CC)NC(=O)[C@H](Cc2c[nH]c3ccccc23)NC1=O
- IC50 [15]: < 0.1 µM

Structure (SMILES): N[C@H]1C[C@@H](N)[C@H](OCc2cnnn2CC(=O)c2ccc(-c3ccccn3)s2)C1
- Kd [4]: 3.7 µM

Structure (SMILES): CC(=O)OC[C@H]1O[C@@H](n2cc(CI)nn2)[C@H](OC(C)=O)[C@@H](OC(C)=O)[C@@H]1OC(C)=O
- EC50 [8]: 2 µg/mL (≈ 3.71 µM)

Structure (SMILES): CC1(C)CC[C@]2(C(=O)OCc3cnnn3-c3ccc([N+](=O)[O-])cc3)CC[C@]3(C)C(=CC[C@@H]4[C@@]5(C)CC[C@H](O)C(C)(C)[C@@H]5CC[C@]43C)[C@@H]2C1
- IC50 [16]: 74 µM
- Activity [17]: 74%

Structure (SMILES): Cc1cccc(-n2nncc2COC(=O)[C@]23CCC(C)(C)C[C@H]2C2=CC[C@@H]4[C@@]5(C)CC[C@H](O)C(C)(C)[C@@H]5CC[C@@]4(C)[C@]2(C)CC3)c1
- IC50 [16]: 60 µM

Structure (SMILES): [N-]=[N+]=NCC(=O)N[C@@H](Cc1ccccc1)C(=O)O
- Ki [18]: 0.001 µM

Structure (SMILES): N[C@H]1C[C@@H](N)[C@H](OCc2cnnn2CC(=O)c2ccc3ccccc3c2)C1
- Kd [4]: 1.9 µM

Structure (SMILES): CC1(C)CC[C@]2(C(=O)OCc3cn(-c4ccc(Br)cc4)nn3)CC[C@]3(C)C(=CC[C@@H]4[C@@]5(C)CC[C@H](O)C(C)(C)[C@@H]5CC[C@]43C)[C@@H]2C1
- IC50 [16]: 91.8 µM
- IC50 [19]: 29.6 µM

Structure (SMILES): O=C(O)[C@@H]1C[C@H]2CCc3cnnn3CCOc3cccc(c3)C(=O)N1C2
- IC50 [11]: 44.9 µM
- IC50 [12]: 34.3 µM
- IC50 [13]: 37.1 µM

Structure (SMILES): CC[C@H](C)[C@@H]1NC(=O)[C@H](CO)NC(=O)[C@@H](CCCCN)NC(=O)[C@@H]([C@H](C)O)NC(=O)[C@@H](NC(=O)[C@H](CCCNC(=N)N)NC(=O)CN)CCn2cc(nn2)C[C@@H](C(=O)N[C@@H](Cc2ccccc2)C(=O)N2CCC[C@H]2C(=O)N[C@@H](CC(=O)O)C(=O)O)NC(=O)[C@@H]([C@@H](C)CC)NC(=O)[C@@H]2CCCN2C(=O)[C@@H]2CCCN2C1=O
- Ki [14]: 1.91 µM

Structure (SMILES): CC1(C)CC[C@]2(C(=O)OCc3cn(-c4ccc(Cl)cc4)nn3)CC[C@]3(C)C(=CC[C@@H]4[C@@]5(C)CC[C@H](O)C(C)(C)[C@@H]5CC[C@]43C)[C@@H]2C1
- IC50 [16]: 91.8 µM
- IC50 [19]: 76 µM

Structure (SMILES): CC[C@H](C)[C@@H]1NC(=O)[C@H](CO)NC(=O)[C@H](CCCCN)NC(=O)[C@H]([C@@H](C)O)NC(=O)[C@@H](NC(=O)[C@H](CCCNC(=N)N)NC(=O)CN)CSSC[C@@H](C(=O)N[C@@H](Cc2ccccc2)C(=O)N2CCC[C@H]2C(=O)N[C@@H](CC(=O)O)C(=O)O)NC(=O)[C@H]([C@@H](C)CC)NC(=O)[C@@H]2CCCN2C(=O)[C@H](C)NC1=O (HELM PEPTIDE1{G.R.C.T.K.S.I.A.P.I.C.F.P.D}$PEPTIDE1,PEPTIDE1,3:R3-11:R3$$$V2.0)
- Ki [3]: 0.178 µM

Structure (SMILES): NC(=O)[C@@H]1C[C@H]2CCc3cnnn3CCOc3cccc(c3)C(=O)N1C2
- IC50 [11]: 34.7 µM
- IC50 [12]: 28 µM
- IC50 [13]: 41.3 µM

Structure (SMILES): Cn1c(=O)cc(OCc2cn(C3CC4CC3[N+]4(C)C)nn2)c2ccccc21 (stereo unspecified)
- Kd [5]: 0.024 µM
- Kd [6]: 0.00096 µM
- Kd [7]: 0.017 µM

Structure (SMILES): CC(C)CNC(=O)[C@@H]1C[C@H]2CCc3cnnn3CCOc3cccc(c3)C(=O)N1C2
- IC50 [11]: 37.3 µM
- IC50 [12]: 43.2 µM
- IC50 [13]: 32.2 µM

Structure (SMILES): CC[C@H](C)[C@@H]1NC(=O)[C@@H]2CCCN2C(=O)[C@H](C)n2nncc2[C@H]([C@@H](C)CC)NC(=O)[C@H](CO)NC(=O)CNC(=O)[C@H]([C@@H](C)O)NC(=O)[C@@H](NC(=O)[C@H](CCCNC(=N)N)NC(=O)CN)CSSC[C@@H](C(=O)N[C@@H](Cc2ccccc2)C(=O)N2CCC[C@H]2C(=O)N[C@@H](CC(=O)O)C(=O)O)NC1=O (HELM PEPTIDE1{G.R.C.T.G.S.[CC[C@H](C)[C@H](N[*:1])c1cnnn1[C@@H](C)C(=O)[*:2]].P.I.C.F.P.D}$PEPTIDE1,PEPTIDE1,3:R3-10:R3$$$V2.0)
- Ki [3]: 0.034 µM

Structure (SMILES): CC(=O)OC[C@H]1O[C@@H](n2cc(CBr)nn2)[C@H](OC(C)=O)[C@@H](OC(C)=O)[C@@H]1OC(C)=O
- EC50 [8]: 3.5 µg/mL (≈ 7.11 µM)

Structure (SMILES): CC(=O)N[C@@H](CCCNC(=N)N)C(=O)N[C@@H](C)C(=O)N[C@H]1CCn2cc(nn2)C[C@@H](C(=O)O)NC(=O)[C@H](Cc2c[nH]cn2)NC(=O)[C@H](Cc2ccc3ccccc3c2)NC(=O)[C@H](CCCNC(=N)N)NC(=O)C1
- IC50 [20]: 0.018 µM

Structure (SMILES): O=C(Cn1nncc1CO/N=C(/Cc1ccc(O)cc1)C(=O)O)N[C@@H](Cc1ccccc1)C(=O)O
- Ki [18]: 0.4 µM

Structure (SMILES): Nc1ncnc2c1c(-c1ccc(Cl)cc1)nn2-c1cccc(-c2cnnn2Cc2ccccc2)c1
- Ki [1]: 0.207 µM
- Ki [2]: > 125 µM

Structure (SMILES): CC(=O)N[C@@H](CCCNC(=N)N)C(=O)N[C@@H](C)C(=O)N[C@H]1CCn2nncc2C[C@@H](C(=O)O)NC(=O)[C@H](Cc2c[nH]cn2)NC(=O)[C@H](Cc2ccc3ccccc3c2)NC(=O)[C@H](CCCNC(=N)N)NC(=O)C1
- IC50 [20]: 0.022 µM

Structure (SMILES): CC[C@H](C)[C@@H]1NC(=O)[C@@H]2CCCN2C(=O)[C@@H]2CCCN2C(=O)[C@H]([C@@H](C)CC)NC(=O)[C@H](CO)NC(=O)[C@H](CCCCN)NC(=O)[C@@H]([C@H](C)O)NC(=O)[C@@H](NC(=O)[C@H](CCCNC(=N)N)NC(=O)CN)CSSC[C@@H](C(=O)N[C@@H](Cc2ccccc2)C(=O)N2CCC[C@H]2C(=O)N[C@@H](CC(=O)O)C(=O)O)NC1=O
- Ki [14]: 0.00148 µM
